Measured values reported in PubChem BioAssay AID330 (DTP/NCI, 2004).
Values joined by “and” are separate entries in the source; they are usually repeats but may differ in a detail not shown here. Equal entries are not always repeated. Toxic doses and inconclusive results are not listed. The calls were made as follows: active = survival T/C of 150% or more; inactive = T/C below 125% in these data.

System: P388 leukemia ip, CD2F1 mice, survival T/C
Assay: NCI In Vivo Anticancer Drug Screen. Data for tumor model P388 Leukemia (intraperitoneal) in CD2F1 (CDF1) mice
Settings: endpoint: median survival time, higher = longer survival
Method in brief: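 Mice carrying the transplanted tumor received test compound or vehicle. Survival was recorded in each group, and the value is the treated-group measurement divided by that of the vehicle-treated control group.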

[1] = dose: 100.0 mg/kg/injection, schedule: Q04DX002 (ip), vehicle: saline with Tween-80
[2] = dose: 400.0 mg/kg/injection, schedule: Q04DX002 (ip), vehicle: saline with Tween-80
[3] = dose: 50.0 mg/kg/injection, schedule: Q01DX009 (ip), vehicle: saline with Tween-80
[4] = dose: 100.0 mg/kg/injection, schedule: Q01DX009 (ip), vehicle: saline with Tween-80
[5] = dose: 50.0 mg/kg/injection, schedule: Q01DX009 (ip), vehicle: Klucel (hydroxypropylcellulose) (HPC)
[6] = dose: 50.0 mg/kg/injection, schedule: Q01DX005 (ip), vehicle: Klucel (hydroxypropylcellulose) (HPC)
[7] = dose: 100.0 mg/kg/injection, schedule: Q04DX003 (ip), vehicle: Klucel (hydroxypropylcellulose) (HPC)
[8] = dose: 200.0 mg/kg/injection, schedule: Q04DX003 (ip), vehicle: Klucel (hydroxypropylcellulose) (HPC)
[9] = dose: 400.0 mg/kg/injection, schedule: Q04DX003 (ip), vehicle: Klucel (hydroxypropylcellulose) (HPC)
[10] = dose: 200.0 mg/kg/injection, schedule: Q01DX009 (ip), vehicle: saline with Tween-80
[11] = dose: 50.0 mg/kg/injection, schedule: Q04DX003 (ip), vehicle: saline
[12] = dose: 100.0 mg/kg/injection, schedule: Q04DX003 (ip), vehicle: saline
[13] = dose: 25.0 mg/kg/injection, schedule: Q04DX002 (ip), vehicle: saline with Tween-80
[14] = dose: 50.0 mg/kg/injection, schedule: Q04DX002 (ip), vehicle: saline with Tween-80

Measured: T/C

CC(=O)c1ccc([N+](=O)[O-])cc1Cl
inactive: [1] 106 % of control | dose: 200.0 mg/kg/injection, schedule: Q04DX002 (ip), vehicle: saline with Tween-80 106 % of control | [2] 103 % of control

C(=C\c1cccnc1)/c1ccncc1
inactive: dose: 25.0 mg/kg/injection, schedule: Q01DX009 (ip), vehicle: saline with Tween-80 95 % of control | [3] 104 % of control | [4] 109 % of control

C=CC12CCCCC1CCC(=O)C2 (stereo not given)
inactive: [5] 111 % of control

CNC(=O)Nc1ccnc(=O)[nH]1
inactive: [6] 116 % of control

CSc1nnc2nc[nH]n12
inactive: dose: 100.0 mg/kg/injection, schedule: Q01DX001 (ip), vehicle: saline with Tween-80 102 % of control | dose: 200.0 mg/kg/injection, schedule: Q01DX001 (ip), vehicle: saline with Tween-80 98 % of control

COc1ccc2c(=O)c(-c3ccc(OC)c(OC)c3OC)coc2c1
inactive: [7] 99 % of control | [8] 100 % of control | [9] 99 % of control

Nc1nnnn1-c1ccccc1Cl
inactive: [7] 105 % of control | [8] 100 % of control | [9] 101 % of control

CNc1ccc(/C=C/c2ccnc3ccccc23)cc1
inactive: dose: 3.12 mg/kg/injection, schedule: Q01DX009 (ip), vehicle: Klucel (hydroxypropylcellulose) (HPC) 95 % of control and 98 % of control | dose: 6.25 mg/kg/injection, schedule: Q01DX009 (ip), vehicle: Klucel (hydroxypropylcellulose) (HPC) 108 % of control and 111 % of control and 112 % of control | dose: 12.5 mg/kg/injection, schedule: Q01DX009 (ip), vehicle: Klucel (hydroxypropylcellulose) (HPC) 113 % of control and 97 % of control | dose: 25.0 mg/kg/injection, schedule: Q01DX009 (ip), vehicle: Klucel (hydroxypropylcellulose) (HPC) 109 % of control and 87 % of control

O=C(O)C1=C(C(=O)O)CCC1
inactive: dose: 25.0 mg/kg/injection, schedule: Q01DX009 (ip), vehicle: distilled water + Tween-80 100 % of control | dose: 50.0 mg/kg/injection, schedule: Q01DX009 (ip), vehicle: distilled water + Tween-80 91 % of control | dose: 100.0 mg/kg/injection, schedule: Q01DX009 (ip), vehicle: distilled water + Tween-80 89 % of control

O=c1[nH]c2cc([N+](=O)[O-])ccc2nc1/C=C(\O)c1ccco1
inactive: dose: 60.0 mg/kg/injection, schedule: Q01DX005 (ip), vehicle: Klucel + Tween-80 100 % of control | dose: 120.0 mg/kg/injection, schedule: Q01DX005 (ip), vehicle: Klucel + Tween-80 94 % of control | dose: 240.0 mg/kg/injection, schedule: Q01DX005 (ip), vehicle: Klucel + Tween-80 94 % of control

CSCCOCc1cc(C)no1
inactive: dose: 60.0 mg/kg/injection, schedule: Q01DX005 (ip), vehicle: saline with Tween-80 100 % of control | dose: 120.0 mg/kg/injection, schedule: Q01DX005 (ip), vehicle: saline with Tween-80 100 % of control | dose: 240.0 mg/kg/injection, schedule: Q01DX005 (ip), vehicle: saline with Tween-80 100 % of control

O=S(=O)(SC(S(=O)(=O)C12CC3CC(CC(C3)C1)C2)S(=O)(=O)C12CC3CC(CC(C3)C1)C2)C12CC3CC(CC(C3)C1)C2 (stereo not given)
inactive: [3] 95 % of control | [4] 105 % of control | [10] 95 % of control

Cc1ccc(N2C(=O)c3ccccc3NC2(C)CCl)cc1 (stereo not given)
inactive: [3] 103 % of control | [4] 103 % of control | [10] 112 % of control

COC(OC)c1cc(=O)[nH]c(=S)[nH]1
inactive: [11] 95 % of control | [12] 96 % of control | dose: 200.0 mg/kg/injection, schedule: Q04DX003 (ip), vehicle: saline 93 % of control | dose: 400.0 mg/kg/injection, schedule: Q04DX003 (ip), vehicle: saline 104 % of control

COC1=CC(=N/Br)/C=CC/1=N/Br
inactive: dose: 50.0 mg/kg/injection, schedule: Q01DX005 (ip), vehicle: saline 98 % of control and 103 % of control | dose: 100.0 mg/kg/injection, schedule: Q01DX005 (ip), vehicle: saline 99 % of control and 100 % of control and 105 % of control | dose: 200.0 mg/kg/injection, schedule: Q01DX005 (ip), vehicle: saline 99 % of control and 107 % of control and 120 % of control

CSc1c2ccncc2c(C)c2c1[nH]c1ccccc12
inactive: dose: 6.25 mg/kg/injection, schedule: Q04DX002 (ip), vehicle: distilled water + Tween-80 95 % of control | dose: 12.5 mg/kg/injection, schedule: Q04DX002 (ip), vehicle: distilled water + Tween-80 94 % of control | dose: 25.0 mg/kg/injection, schedule: Q04DX002 (ip), vehicle: distilled water + Tween-80 88 % of control | dose: 50.0 mg/kg/injection, schedule: Q04DX002 (ip), vehicle: distilled water + Tween-80 89 % of control | dose: 100.0 mg/kg/injection, schedule: Q04DX002 (ip), vehicle: distilled water + Tween-80 95 % of control | dose: 200.0 mg/kg/injection, schedule: Q04DX002 (ip), vehicle: distilled water + Tween-80 98 % of control

CC1=C(C/C=C(\C)CCCC(C)CCCC(C)CCCC(C)C)C(=O)c2ccccc2C1=O (stereo not given)
inactive: dose: 12.5 mg/kg/injection, schedule: Q01DX009 (ip), vehicle: olive oil, sesame oil, peanut oil 102 % of control | dose: 25.0 mg/kg/injection, schedule: Q01DX009 (ip), vehicle: olive oil, sesame oil, peanut oil 105 % of control | dose: 50.0 mg/kg/injection, schedule: Q01DX001 (ip), vehicle: olive oil, sesame oil, peanut oil 92 % of control | dose: 50.0 mg/kg/injection, schedule: Q01DX009 (ip), vehicle: olive oil, sesame oil, peanut oil 101 % of control | dose: 100.0 mg/kg/injection, schedule: Q01DX001 (ip), vehicle: olive oil, sesame oil, peanut oil 99 % of control | dose: 100.0 mg/kg/injection, schedule: Q01DX009 (ip), vehicle: olive oil, sesame oil, peanut oil 100 % of control | dose: 200.0 mg/kg/injection, schedule: Q01DX001 (ip), vehicle: olive oil, sesame oil, peanut oil 99 % of control | dose: 200.0 mg/kg/injection, schedule: Q01DX009 (ip), vehicle: olive oil, sesame oil, peanut oil 101 % of control

CN(C)c1ccc(N=Cc2cc[n+](C)cc2)cc1
inactive: dose: 6.25 mg/kg/injection, schedule: Q01DX009 (ip), vehicle: saline 114 % of control | dose: 12.5 mg/kg/injection, schedule: Q01DX009 (ip), vehicle: saline 101 % of control | dose: 25.0 mg/kg/injection, schedule: Q01DX009 (ip), vehicle: saline 105 % of control | dose: 25.0 mg/kg/injection, schedule: Q04DX003 (ip), vehicle: saline 100 % of control | dose: 50.0 mg/kg/injection, schedule: Q01DX009 (ip), vehicle: saline 111 % of control | [11] 107 % of control | [12] 107 % of control

CCC/C(=N\NC(N)=Nc1ccc(Cl)cc1)c1ccc(Cl)cc1
inactive: [13] 99 % of control | [14] 100 % of control | [1] 104 % of control

Cn1c(-c2ccccc2)c2c(c1-c1ccccc1)C(=O)c1c(c(-c3ccccc3)n(C)c1-c1ccccc1)C2=O
inactive: [5] 94 % of control | dose: 100.0 mg/kg/injection, schedule: Q01DX009 (ip), vehicle: Klucel (hydroxypropylcellulose) (HPC) 92 % of control | dose: 200.0 mg/kg/injection, schedule: Q01DX009 (ip), vehicle: Klucel (hydroxypropylcellulose) (HPC) 97 % of control

Cc1ccc(-c2csc(=NCCc3ccccc3)n2-c2ccc(C)cc2)cc1
inactive: dose: 12.5 mg/kg/injection, schedule: Q04DX002 (ip), vehicle: saline with Tween-80 97 % of control | [13] 99 % of control | [14] 88 % of control | [1] 88 % of control | [2] 93 % of control

CC(=O)Oc1c2c(c(C)c3ccccc13)C(=O)c1cccnc1C2=O
inactive: dose: 100.0 mg/kg/injection, schedule: Q01DX001 (ip), vehicle: saline 98 % of control | dose: 200.0 mg/kg/injection, schedule: Q01DX001 (ip), vehicle: saline 89 % of control | dose: 400.0 mg/kg/injection, schedule: Q01DX001 (ip), vehicle: saline 92 % of control

CC(C)(C)c1cc2c(O)c(c1)Cc1cc(C(C)(C)C)cc(c1O)Cc1cc(C(C)(C)C)cc(c1O)Cc1cc(C(C)(C)C)cc(c1O)Cc1cc(C(C)(C)C)cc(c1O)Cc1cc(C(C)(C)C)cc(c1O)Cc1cc(C(C)(C)C)cc(c1O)Cc1cc(C(C)(C)C)cc(c1O)C2
inactive: [6] 101 % of control | dose: 100.0 mg/kg/injection, schedule: Q01DX005 (ip), vehicle: Klucel (hydroxypropylcellulose) (HPC) 90 % of control | dose: 200.0 mg/kg/injection, schedule: Q01DX005 (ip), vehicle: Klucel (hydroxypropylcellulose) (HPC) 99 % of control
